Test results published in US20060014644A1, “Phenylsulfonyl ureas, process for their preparation and their use as herbicides and plant growth regulators” (Hoechst Schering AgrEvo GmbH, priority 1999, published 2006).

Experiments:
[1] = test system: harmful plants such as Sinapis alba, Chrysanthemum segetum, Avena sativa, Stellaria media, Echinochloa crus-galli, Lolium multiflorum, Setaria spp., Abutilon …; test: Pre-emergence effect on weeds (greenhouse pot test, visual scoring); type: in vivo, monocotyledonous and dicotyledonous weed plants; settings: application rate of 0.3 kg and less of active substance per hectar, scored visually after 3 to 4 weeks by comparison with untreated controls
Source text: 1. Pre-Emergence Effect on Weeds
Seeds or rhizome pieces of monocotyledonous and dicotyledonous weed plants were placed in sandy loam soil in cardboard pots and covered with soil. The compounds according to the invention which were formulated in the form of wettable powders or emulsion concentrates were then applied to the surface of the soil cover in the form of aqueous suspensions or emulsions at an application rate of 600 to 800 l of water/ha (converted), in various dosages.
After the treatment, the pots were placed in a greenhouse and kept under good growth conditions for the weeds. After the test plants had emerged, the damage to the plants or the negative effect on the emergence was scored visually after a test period of 3 to 4 weeks by comparison with untreated controls. As shown by the test results, compounds according to the invention have good herbicidal pre-emergence activity against a broad spectrum of weed grasses and broad-leafed weeds.

[2] = test system: harmful plants such as Sinapis alba, Echinochloa crus-galli, Lolium multiflorum, Chrysanthemum segetum, Setaria spp., Abutilon theophrasti, Amaranthus …; test: Post-emergence effect on weeds (greenhouse pot test, visual scoring); type: in vivo, monocotyledonous and dicotyledonous weeds; settings: three-leaf stage, application rate of 0.3 kg and less of active substance per hectare, scored visually after about 3 to 4 weeks by comparison with untreated controls
Procedure: 2. Post-Emergence Effect on Weeds
Seeds or rhizome pieces of monocotyledonous and dicotyledonous weeds were placed in sandy loam soil in plastic pots, covered with soil and grown in a greenhouse under good growth conditions. Three weeks after sowing, the test plants were treated at the three-leaf stage. The compounds according to the invention which were formulated as wettable powders or emulsion concentrates were sprayed, at various dosages, onto the green parts of the plants at an application rate of 600 to 800 l of water/ha (converted). After the test plants had remained in the greenhouse for about 3 to 4 weeks under ideal growth conditions, the effect of the preparations was scored visually by comparison with untreated controls. The agents according to the invention also have good herbicidal activity post-emergence against a broad spectrum of economically important Weed grasses and broad-loafed weeds.

| SMILES | herbicidal activity against harmful plants, pre-emergence [1] | herbicidal activity against harmful plants, post-emergence [2] |
| --- | --- | --- |
| COC(=O)c1c(NCCCC(F)(F)F)cccc1S(=O)(=O)NC(=O)Nc1nc(OC)cc(OC)n1 [Example 1-241] | very good herbicidal activity | very good herbicidal activity |
| CCC(C)Nc1cccc(S(=O)(=O)NC(=O)Nc2nc(C)nc(OC)n2)c1C(=O)OC (stereo not shown) [Example 1-267] | very good herbicidal activity | very good herbicidal activity |
| COC(=O)c1c(NC(C)C)cccc1S(=O)(=O)NC(=O)Nc1nc(OC)cc(OC)n1 [Example 1-153] | very good herbicidal activity | very good herbicidal activity |
| CCOC(=O)c1c(NCC(C)C)cccc1S(=O)(=O)NC(=O)Nc1nc(Cl)cc(OC)n1 [Example 1-189] | very good herbicidal activity | very good herbicidal activity |
| CCOC(=O)c1c(N)cccc1S(=O)(=O)NC(=O)Nc1nc(C)nc(OC)n1 [Example 1-47] | very good herbicidal activity | very good herbicidal activity |
| COC(=O)c1c(NCCCC(F)(F)F)cccc1S(=O)(=O)NC(=O)Nc1nc(C)nc(OC)n1 [Example 1-243] | very good herbicidal activity | very good herbicidal activity |
| COC(=O)c1c(N)cccc1S(=O)(=O)NC(=O)Nc1nc(C)cc(OC)n1 [Example 1-17] | very good herbicidal activity | very good herbicidal activity |
| COC(=O)c1c(NC(C)C)cccc1S(=O)(=O)[N-]C(=O)Nc1nc(OC)cc(OC)n1.[Na+] [Example 1-154] | very good herbicidal activity | very good herbicidal activity |
| COC(=O)c1c(NC2CC2)cccc1S(=O)(=O)NC(=O)Nc1nc(OC)cc(OC)n1 [Example 1-353] | very good herbicidal activity | very good herbicidal activity |
| COC(=O)c1c(NC(C)C)cccc1S(=O)(=O)NC(=O)Nc1nc(C)nc(OC)n1 [Example 1-155] | very good herbicidal activity | very good herbicidal activity |
| CCNc1cccc(S(=O)(=O)NC(=O)Nc2nc(C)nc(OC)n2)c1C(=O)OC [Example 1-131] | very good herbicidal activity | very good herbicidal activity |
| COC(=O)c1c(NCCCC(F)(F)F)cccc1S(=O)(=O)NC(=O)Nc1nc(OC)nc(OC)n1 [Example 1-247] | very good herbicidal activity | very good herbicidal activity |
| CCOC(=O)c1c(N)cccc1S(=O)(=O)NC(=O)Nc1nc(OC)nc(OC)n1 [Example 1-57] | very good herbicidal activity | very good herbicidal activity |
| CCN(CC)c1cccc(S(=O)(=O)NC(=O)Nc2nc(OC)cc(OC)n2)c1C(=O)OC [Example 1-417] | very good herbicidal activity | very good herbicidal activity |
| COC(=O)c1c(NC2CC2)cccc1S(=O)(=O)NC(=O)Nc1nc(C)nc(OC)n1 [Example 1-355] | very good herbicidal activity | very good herbicidal activity |
| COC(=O)c1c(N)cccc1S(=O)(=O)NC(=O)Nc1nc(OC)cc(OC)n1 [Example 1-11] | very good herbicidal activity | very good herbicidal activity |
| CCC(C)Nc1cccc(S(=O)(=O)NC(=O)Nc2nc(OC)cc(OC)n2)c1C(=O)OC (stereo not shown) [Example 1-265] | very good herbicidal activity | very good herbicidal activity |
| COC(=O)c1c(N)cccc1S(=O)(=O)NC(=O)Nc1nc(Cl)cc(OC)n1 [Example 1-23] | very good herbicidal activity | very good herbicidal activity |

| SMILES | herbicidal activity against harmful plants, pre-emergence [1] | herbicidal activity against harmful plants, post-emergence [2] |
| --- | --- | --- |
| CNc1cccc(S(=O)(=O)NC(=O)Nc2nc(OC)cc(OC)n2)c1C(=O)OC [Example 1-105] | very good herbicidal activity | very good herbicidal activity |
| CCNc1cccc(S(=O)(=O)NC(=O)Nc2nc(OC)nc(OC)n2)c1C(=O)OC [Example 1-135] | very good herbicidal activity | very good herbicidal activity |
| COC(=O)c1c(NCc2ccccc2)cccc1S(=O)(=O)NC(=O)Nc1nc(C)nc(OC)n1 [Example 1-383] | very good herbicidal activity | very good herbicidal activity |
| COC(=O)c1c(NCC(C)C)cccc1S(=O)(=O)NC(=O)Nc1nc(OC)cc(OC)n1 [Example 1-177] | very good herbicidal activity | very good herbicidal activity |
| CCOC(=O)c1c(N)cccc1S(=O)(=O)NC(=O)Nc1nc(Cl)cc(OC)n1 [Example 1-55] | very good herbicidal activity | very good herbicidal activity |
| COC(=O)c1c(N)cccc1S(=O)(=O)NC(=O)Nc1nc(C)nc(OC)n1 [Example 1-15] | very good herbicidal activity | very good herbicidal activity |
| COc1nc(NC(=O)NS(=O)(=O)c2cccc(N)c2C(=O)O)nc(OC)n1 [Example 1-9] | very good herbicidal activity | very good herbicidal activity |
| COC(=O)c1c(N)cccc1S(=O)(=O)NC(=O)Nc1nc(OC)nc(OC)n1 [Example 1-25] | very good herbicidal activity | very good herbicidal activity |
| COC(=O)c1c(N)cccc1S(=O)(=O)[N-]C(=O)Nc1nc(OC)nc(OC)n1.[Na+] [Example 1-26] | very good herbicidal activity | very good herbicidal activity |
| COC(=O)c1c(NC2CC2)cccc1S(=O)(=O)NC(=O)Nc1nc(OC)nc(OC)n1 [Example 1-359] | very good herbicidal activity | very good herbicidal activity |
| COC(=O)c1c(N)cccc1S(=O)(=O)NC(=O)Nc1nc(OC(F)F)cc(OC(F)F)n1 [Example 1-41] | very good herbicidal activity | very good herbicidal activity |
| COC(=O)c1c(NCc2ccccc2)cccc1S(=O)(=O)NC(=O)Nc1nc(OC)nc(OC)n1 [Example 1-387] | very good herbicidal activity | very good herbicidal activity |
| CCC(C)Nc1cccc(S(=O)(=O)NC(=O)Nc2nc(OC)nc(OC)n2)c1C(=O)OC (stereo not shown) [Example 1-271] | very good herbicidal activity | very good herbicidal activity |
| COC(=O)c1c(N(CC(C)C)CC(C)C)cccc1S(=O)(=O)[N-]C(=O)Nc1nc(OC)cc(OC)n1.[Na+] [Example 1-426] | very good herbicidal activity | very good herbicidal activity |
| CCOC(=O)c1c(N)cccc1S(=O)(=O)NC(=O)Nc1nc(OC)cc(OC)n1 [Example 1-45] | very good herbicidal activity | very good herbicidal activity |
| COC(=O)c1c(NC(C)C)cccc1S(=O)(=O)NC(=O)Nc1nc(OC)nc(OC)n1 [Example 1-159] | very good herbicidal activity | very good herbicidal activity |
| COC(=O)c1c(NCC(C)C)cccc1S(=O)(=O)NC(=O)Nc1nc(C)nc(OC)n1 [Example 1-179] | very good herbicidal activity | very good herbicidal activity |
